pEC50, pKi: −log10 of the molar value. Where two headings read alike, the source gives them in different places.
Experiments:
LXR α LBD protein [1] = biological target: T1, LXR α LBD protein (Homo sapiens (Human), UniProt Q13133); test: Human LXRα coactivator recruitment FRET assay, agonist mode; assay type: biochemical; conditions: agonist mode
Protocol: Two μL of the DMSO solutions were transferred to the plate and 38 μL of 10 nM LXRα-LBD or LXRβ-LBD (2×) were added immediately to the wells. The plate was shaken for 5 min at rt on an orbital micro shaker (DPC MicroMix® 5), after which 40 μL of 200 nM fluorescein-SRC2-3 peptide and 20 nM Terbium-anti-GST-antibody (Cat# PV3550, Life Technologies, Grand Island, N.Y.) solution (4×) were added to all. The plate was sealed and shaken for 2 min at rt, and incubated at rt for 2 h without agitation. […] The delay and window times were set at 100 and 200 microseconds, respectively. […] The percent control vs. compound concentration data were fit into a four-parameter model, and EC50 values were calculated from the fit as the concentrations corresponding to the inflection points on the concentration-response curves.

LXR α LBD protein [2] = biological target: T1, LXR α LBD protein; test: LXR α radioligand binding assay (SPA, competition with [3H]TO901317); conditions: read-out: LXRα Binding Ki
LXR β LBD protein = LXR β LBD protein (Homo sapiens (Human), UniProt P55055); test: biochemical; assay type: binding; conditions: read-out: LXRβ Binding Ki
Sequence of LXR β LBD protein (P55055 222-460 limits assumed): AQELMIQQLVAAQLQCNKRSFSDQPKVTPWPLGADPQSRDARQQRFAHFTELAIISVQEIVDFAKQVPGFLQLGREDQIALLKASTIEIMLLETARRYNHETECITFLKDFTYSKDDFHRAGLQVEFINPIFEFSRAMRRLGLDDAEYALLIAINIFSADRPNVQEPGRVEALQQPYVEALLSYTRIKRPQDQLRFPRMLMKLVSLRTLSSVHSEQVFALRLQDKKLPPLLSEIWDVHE

[3] = biological target: Gal4 DNA binding domain fused to the LBD of LXRα in HEK293 cells (Homo sapiens (Human), UniProt Q13133); test: LXR luciferase transcriptional reporter gene assay, agonist mode, LXRα; assay type: cell-based; conditions: for pEC50: read-out: Cell LXRα EC50
Sequence of Gal4 DNA binding domain fused to the LBD of LXRα in HEK293 cells (Q13133 209-447): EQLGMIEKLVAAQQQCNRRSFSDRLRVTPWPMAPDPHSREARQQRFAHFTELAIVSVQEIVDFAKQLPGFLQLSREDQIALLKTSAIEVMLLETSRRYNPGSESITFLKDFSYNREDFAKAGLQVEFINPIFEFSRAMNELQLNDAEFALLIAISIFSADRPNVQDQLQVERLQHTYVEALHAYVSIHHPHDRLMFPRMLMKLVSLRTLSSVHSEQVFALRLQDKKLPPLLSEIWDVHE

[4] = biological target: Gal4 DNA binding domain fused to the LBD of LXRβ in HEK293 cells (Homo sapiens (Human), UniProt P55055); test: cell-based
Sequence of Gal4 DNA binding domain fused to the LBD of LXRβ in HEK293 cells (P55055 222-460 limits assumed): as the sequence (P55055 222-460 limits assumed) above

T1 sequence (Q13133 209-447): as the sequence (Q13133 209-447) above

Compound	FRET LXRα efficacy (LXR α LBD protein [1])	pKi (LXR α LBD protein [2])	pKi (LXR β LBD protein)	Cell LXRα efficacy [3]	pEC50 ([3]; agonist mode)	pEC50 [4]	Cell LXRβ efficacy ([4]; agonist mode)	pEC50 [3]	Cell LXRβ efficacy [4]	pKi (LXR β LBD protein; Biological Test Example 1)	Cell LXRβ efficacy ([4]; Biological Test Example 2, agonist mode)
CC(C)(C)OC(=O)N1CCN(c2cccc(S(C)(=O)=O)c2)CC1c1ccc(Br)cc1 (stereo not shown) [1-12, tert-butyl 2-(4-bromophenyl)-4-(3-(methylsulfonyl)phenyl)piperazine-1-carboxylate]	46%	–	–	–	–	–	–	–	–	–	–
Cc1nc(C(F)(F)F)ccc1CN1CCN(c2cccc(S(C)(=O)=O)c2)CC1c1ccccc1 (stereo not shown) [46-47, 1-((2-methyl-6-(trifluoromethyl)pyridin-3-yl)methyl)-4-(3-(methylsulfonyl)phenyl)-2-phenylpiperazine]	51%	–	–	–	–	–	–	–	–	–	–
Cc1cc(CN2CCN(c3cccc(S(C)(=O)=O)c3)CC2c2ccccc2)cnc1C(F)(F)F (stereo not shown) [46-48, 1-((5-methyl-6-(trifluoromethyl)pyridin-3-yl)methyl)-4-(3-(methylsulfonyl)phenyl)-2-phenylpiperazine]	47%	–	–	–	–	–	–	–	–	–	–
COC(=O)c1ccc(N2CCN(Cc3ccc(C(F)(F)F)nc3)C(c3ccccc3)C2)cc1S(C)(=O)=O (stereo not shown) [46-59, methyl 2-(methylsulfonyl)-4-(3-phenyl-4-((6-(trifluoromethyl)pyridin-3-yl)methyl)piperazin-1-yl)benzoate]	109%	–	–	–	–	–	–	–	–	–	–
CC(C)[C@@H]1CN(c2ccc(F)c(S(C)(=O)=O)c2)CCN1c1nc(C(F)(F)F)c(C(C)(C)O)s1 [Cpd No 26-1, (R)-2-(2-(4-(4-fluoro-3-(methylsulfonyl)phenyl)-2-isopropylpiperazin-1-yl)-4-(trifluoromethyl)thiazol-5-yl)propan-2-ol]	–	6.95	8.30	584 (102) %	6.23	6.73	185 (98) %	–	–	–	–
Cc1csc(-c2ccc(N3CCN(c4ncc(CO)c(C(F)(F)F)n4)[C@H](C(C)C)C3)cc2S(C)(=O)=O)n1 [Cpd No 28-1, (R)-(2-(2-isopropyl-4-(3-(methylsulfonyl)-4-(4-methylthiazol-2-yl)phenyl)piperazin-1-yl)-4-(trifluoromethyl)pyrimidin-5-yl)methanol]	–	7.54	8.52	66 (80) %	7.18	7.96	11 (79) %	–	–	–	–
CC(C)[C@@H]1CN(c2ccc(F)c(S(C)(=O)=O)c2)CCN1c1ncc(O)c(C(F)(F)F)n1 [Cpd No 30-1, (R)-2-(4-(4-fluoro-3-(methylsulfonyl)phenyl)-2-isopropylpiperazin-1-yl)-4-(trifluoromethyl)pyrimidin-5-ol]	–	6.77	7.62	3121 (100) %	–	6.14	–	5.51	729 (98) %	–	–
CC(C)[C@@H]1CN(c2ccc(F)c(S(C)(=O)=O)c2)CCN1c1ncc(C(F)(F)F)c(C(C)(C)O)n1 [Cpd No 39-1, (R)-2-(2-(4-(4-fluoro-3-(methylsulfonyl)phenyl)-2-isopropylpiperazin-1-yl)-5-(trifluoromethyl)pyrimidin-4-yl)propan-2-ol]	–	7.28	8.70	327 (96) %	–	7.07	86 (62) %	6.49	–	–	–
CC(C)[C@@H]1CN(c2ccc(F)c(S(C)(=O)=O)c2)CCN1c1ncc(C(O)C(F)(F)F)cn1 (stereo partly drawn) [Cpd No 41-1, 2,2,2-trifluoro-1-(2-((R)-4-(4-fluoro-3-(methylsulfonyl)phenyl)-2-isopropylpiperazin-1-yl)pyrimidin-5-yl)ethan-1-ol]	–	5.95	7.04	3334 (36) %	–	6.52	–	5.48	305 (19) %	–	–
COC(c1cnc(N2CCN(c3ccc(F)c(S(C)(=O)=O)c3)C[C@H]2C(C)C)nc1)C(F)(F)F (stereo partly drawn) [Cpd No 42-1, 2-((R)-4-(4-fluoro-3-(methylsulfonyl)phenyl)-2-isopropylpiperazin-1-yl)-5-(2,2,2-trifluoro-1-methoxyethyl)pyrimidine]	–	6.44	7.48	763 (48) %	–	6.91	–	6.12	124 (20) %	–	–
CC(C)[C@@H]1CN(c2ccc(F)c(S(C)(=O)=O)c2)CCN1c1ccnc(OC(F)F)c1 [Cpd No 44-1, (R)-1-(2-(difluoromethoxy)pyridin-4-yl)-4-(4-fluoro-3-(methylsulfonyl)phenyl)-2-isopropylpiperazine]	–	7.35	8.15	258 (99) %	–	7.15	–	6.59	70 (83) %	–	–
CC(C)[C@H]1CN(c2ccc(CO)c(S(C)(=O)=O)c2)CCN1CC1CCC(O)(C(F)(F)F)CC1 (stereo partly drawn) [Cpd No 48-38, (S)-4-((4-(4-(hydroxymethyl)-3-(methylsulfonyl)phenyl)-2-isopropylpiperazin-1-yl)methyl)-1-(trifluoromethyl)cyclohexan-1-ol]	–	6.61	7.57	106 (86) %	–	7.52	30 (81) %	6.97	–	–	–
CC(C)[C@H]1CN(c2ccc(CO)c(S(C)(=O)=O)c2)CCN1C[C@H]1CC[C@@H](C(F)(F)F)OC1 [Cpd No 49-1, (4-((S)-3-isopropyl-4-(((3R,6S)-6-(trifluoromethyl)tetrahydro-2H-pyran-3-yl)methyl)piperazin-1-yl)-2-(methylsulfonyl)phenyl)methanol]	–	6.45	7.43	195 (64) %	–	6.96	–	6.71	110 (94) %	–	–
CC(C)[C@H]1CN(c2ccc(CO)c(S(C)(=O)=O)c2)CCN1C[C@@H]1CC[C@@H](C(F)(F)F)OC1 [Cpd No 49-3, (4-((S)-3-isopropyl-4-(((3S,6S)-6-(trifluoromethyl)tetrahydro-2H-pyran-3-yl)methyl)piperazin-1-yl)-2-(methylsulfonyl)phenyl)methanol]	–	6.78	7.77	178 (75) %	–	7.24	–	6.75	58 (78) %	–	–
CC(C)[C@H]1CN(c2ccc(CO)c(S(C)(=O)=O)c2)CCN1C[C@@H]1CC[C@H](C(F)(F)F)OC1 [Cpd No 49-4, (4-((S)-3-isopropyl-4-(((3S,6R)-6-(trifluoromethyl)tetrahydro-2H-pyran-3-yl)methyl)piperazin-1-yl)-2-(methylsulfonyl)phenyl)methanol]	–	7.36	8.15	27 (80) %	–	7.70	–	7.57	20 (101) %	–	–
CC(C)[C@H]1CN(c2cccc(S(C)(=O)=O)c2)CCN1CC1CCCOC1 (stereo partly drawn) [Cpd No 51-1, (2S)-2-isopropyl-4-(3-(methylsulfonyl)phenyl)-1-((tetrahydro-2H-pyran-3-yl)methyl)piperazine]	–	< 5.48	5.81	7863 (36) %	–	6.17	–	5.10	673 (32) %	–	–
CC(C)[C@H]1CN(c2cccc(S(C)(=O)=O)c2)CCN1CC1CCC(C(F)(F)F)N(C)C1 (stereo partly drawn) [Cpd No 52-1, (2S)-2-isopropyl-1-((1-methyl-6-(trifluoromethyl)piperidin-3-yl)methyl)-4-(3-(methylsulfonyl)phenyl)piperazine]	–	6.84	–	137 (95) %	–	7.34	–	6.86	–	7.72	46 (74) %

From patent publication US10144715B2, “Piperazine derivatives as liver X receptor modulators” (priority 2014, dated 2018)
